# In PubChem BioAssay AID651745 (NMMLSC, 2012):
# Calls of active or inactive are those of the source.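 How the source made its calls: active means GFP positive cell share at least 15% at top dose plus 60%-effect dose below 60 µM; inactive means the rest.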
# Tested on: not listed separately
# Test: promoters of myeloid differentiation, HoxA9-arrested cells, dose response, cell-based, lysozyme-GFP, flow cytometry, Cherry Pick01 (AID 651745)
# Details: ER-HoxA9 myeloid progenitors, lysozyme-GFP differentiation, flow cytometry; at 39.8 µM (top of the series)
row,Structure (SMILES),percent GFP positive (differentiation)
1,Cc1c(N=C2NN=C(c3c[nH]c4ccccc34)CS2)c(=O)n(-c2ccccc2)n1C,5.55% (inactive)
2,COc1ccc(/C=C/c2cccc[n+]2C)c(O)c1,6.2% (inactive)
3,CCCCN1C(N)=NC[C@@H]1Cc1ccc(O)cc1,3.4% (inactive)
4,CCS(=O)(=O)c1nc(S(=O)(=O)c2ccc(Cl)cc2)c(N2CCC3(CC2)OCCO3)s1,5.1% (inactive)
5,CC(=O)c1c(N2CCOCC2)[nH]c(-c2ccccc2)nc1=S,5.35% (inactive)
6,COc1ccc(NC(=S)N2CCC3CC2c2c(Cl)cccc23)c(OC)c1 (centres undefined),0.6% (inactive)
7,COc1ccc2ccccc2c1CNC(=O)CC1C(=O)NCCN1CC(C)C (centres undefined),7% (inactive)
8,Cc1ccc(-c2nn3c(C)nnc3s2)cc1NC(=O)CSc1ccc(Cl)cc1,0.9% (inactive)
9,COc1ccccc1CN(Cc1nc2ccccc2c(=O)[nH]1)C(=O)Nc1ccc(C)cc1,1.4% (inactive)
10,CCOc1ccccc1Nc1nc2ccc(C)cc2n2cnnc12,1.4% (inactive)
11,O=C(O)c1ccccc1N/N=C/c1c(Sc2nnnn2-c2ccccc2)nc2ccccn2c1=O,97.5% (inactive)
12,N#CC(C#N)=c1ccc2c(c1)N1C(c3ccccc3)=CC(c3ccccc3)C3CCCCC31N=2 (centres undefined),1% (inactive)
13,CC(=O)c1c(NC(=O)c2ccccc2)[nH]c(-c2ccccc2)nc1=S,4% (inactive)
14,C#CC[N+](CC)(CC)CC#Cc1ccccc1,4.1% (inactive)
15,C[n+]1ccccc1/C=C/c1ccc2ncccc2c1,4.4% (inactive)
16,COc1ccc(C)cc1NC(=O)n1ncc2cc(Cl)ccc21,2.5% (inactive)
17,O=[N+]([O-])c1ccc(C[n+]2cccc3c4ccccc4ccc32)cc1,3.1% (inactive)
18,CCOC(=O)c1c(NC(=O)c2nn(CC)cc2Br)c(C#N)cn1-c1ccccc1,0.4% (inactive)
19,COc1cccc(NC(=O)[C@H](Cc2c[nH]c3ccccc23)NC(=O)[C@@H]2Cc3ccccc3CN2)c1,3.5% (inactive)

# Tested on: ER-HoxA9 myeloid progenitors, lysozyme-GFP differentiation, flow cytometry
# Test: as above
# Details: not given
row,Structure (SMILES),EC50
1,C/C(=C1/SC(N2CCCC2)=NC1=O)c1ccc(Br)cc1,2.08 µM
2,O=C(O)c1ccccc1Nc1ccc([N+](=O)[O-])cc1,6.05 µM
3,O=C(O)c1cccnc1Nc1ccc(Cl)cc1,5.88 µM
4,CC(=O)Nc1ccc(C2=CC(=O)C[C@H](c3ccc(Cl)cc3)C2)cc1,24.7 µM
5,O[C@H]1C[C@H](c2ccc(Cl)cc2)N(Cc2cccs2)C[C@@H]1n1cc(C2CC2)nn1,4.9 µM
6,Cn1ccc2c(-c3ccc(C(C)(C)C)cc3)cc3c(c21)C1CCC3O1 (centres undefined),5.62 µM
7,Cc1cc(NC(=O)COC(=O)c2c(C)nn(Cc3ccccc3)c2Cl)no1,4.44 µM
8,COc1ccccc1C1N(c2ccc(Cl)cc2)C(=O)C2CCCN21 (centres undefined),6.47 µM
9,Cc1cccn2cc(COc3ccc(-c4ccccc4)cc3)nc12,2.24 µM
10,O=C(CCNC(=O)c1ccc(Br)cc1)NC1CCCc2ccccc21 (centres undefined),5.32 µM
11,CCC(C)Sc1ccc(-c2nc3cc(C)ccn3c2NC2CCCCC2)cc1 (centres undefined),21.3 µM
12,N#C/C(=C\N1CCN(Cc2ccc3c(c2)OCO3)CC1)c1nc2ccccc2s1,6.5 µM
13,Cc1ccc(Nc2nc(=O)c3cccnc3s2)c(Br)c1,4.47 µM
14,COC(=O)c1cc2c(=O)c3ccccc3oc2nc1/C=C/N(C)C,6.88 µM
15,CCCCn1c(N)c(N(CC(C)C)C(=O)Cc2ccc(S(=O)(=O)N3CCOCC3)s2)c(=O)[nH]c1=O,20.2 µM
